Among the data in BindingDB's records for patent US20250221979 (Shouyao Holdings (Beijing) Co., 2025) are IC50 values, retold here.

This experiment deals with S-adenosylmethionine synthase isoform type-2 (Homo sapiens, UniProt P31153). In words: In Vitro Enzymatic Inhibition Activity Assay. As to the method: Enzymatic activity assays of compounds of this patent against MAT2A (to detect half inhibitory concentration IC50 values of the compounds) were performed using the phosphate detection kit PiColorLockTM (ab270004, purchased from Abcam). This method utilized the principle that purified human MAT2A enzyme catalyzes the formation of S-adenosylmethionine (SAM) from L-methionine and ATP to release free phosphate, and used the spectrophotometric method to quantify phosphate, so as to determine the enzymatic activity of MAT2A. Compounds were diluted in a 10-fold gradient starting at 1 mM with 100% DMSO (for a total of 8 concentrations) and 2 μL of each concentration was added to 48 μL of reaction buffer (50 mM Tris-HCl PH 7.5, 50 mM KCl, 10 mM MgCl2, 0.01% Brij-35, 0.01% BSA, 1 mM DTT) and mixed well. The final diluted compound was prepared, and 5 μL of MAT2A enzyme (final concentration of 10 nM), 5 μL of ATP (final concentration of 50 μM), and 5 μL of L-methionine (final concentration of 100 μM) were added to each well of a 384-well plate (#3701, purchased from CORNING). After the 384-well plate was placed in the incubator at 23° C. for 6 h, 5 μL of PiColorLock reagent diluted Accelerator (dilution ratio 1:100) was added to each well, and the reaction was stopped by incubating in the incubator at 23° C. for 5 min. 2 μL of Stabiliser was added, the absorbance was read at 630 nm on BMG CLARIOstar, and the IC50 value of the compound was calculated by using GraphPad Prism software.
Chain of S-adenosylmethionine synthase isoform type-2 (P31153 whole entry, canonical isoform): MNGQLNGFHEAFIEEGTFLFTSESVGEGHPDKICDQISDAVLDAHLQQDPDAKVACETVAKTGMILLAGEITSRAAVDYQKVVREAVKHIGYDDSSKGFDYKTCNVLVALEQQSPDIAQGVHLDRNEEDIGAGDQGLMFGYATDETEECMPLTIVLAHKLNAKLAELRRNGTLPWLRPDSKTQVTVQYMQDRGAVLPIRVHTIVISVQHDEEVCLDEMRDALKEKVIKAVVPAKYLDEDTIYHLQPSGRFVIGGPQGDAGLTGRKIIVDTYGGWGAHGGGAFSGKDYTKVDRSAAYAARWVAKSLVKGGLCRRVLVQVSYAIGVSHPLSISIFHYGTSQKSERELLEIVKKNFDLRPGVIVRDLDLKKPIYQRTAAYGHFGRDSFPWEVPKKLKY

Regarding `COC(=O)c1c(N)c2ccc(OC(F)F)cc2n(-c2ccc(N)cc2)c1=O` [US20250221979, Example 320], the IC50 – broadly, the midpoint of a concentration-inhibition curve – stood at 1.19 nM. `COC(=O)c1c(N)c2ncc(C3CC3)nc2n(-c2ccc(C(C)O)cc2)c1=O` (stereo not drawn) [US20250221979, Example 356] yielded an IC50 of 1.19 nM. As for `COC(=O)c1c(N)c2ccc(OC(F)F)nc2n(-c2ccc([C@@H](C)O)cc2)c1=O` [US20250221979, Example 372], the half-inhibitory concentration (IC50) was 1.96 nM.
